According to PMC6701825, “Antiproliferative and Antimigratory Effects of a Novel YAP–TEAD Interaction Inhibitor Identified Using in Silico Molecular Docking” (Journal of Medicinal Chemistry, 2019):

How the values were obtained:
TEAD3 = biological target: T1, TEAD3 (Homo sapiens, UniProt Q99594); assay: GAL4-TEAD3 fusion / 5xGAL4-secNLUC reporter in HeLa cells; assay type: cell-based; conditions: 100 μM, 6 h
T1 construct: #18881 (FLAG-YAP); host or cells: HeLa
From the text: (§1) TEAD proteins (TEAD1–4) display a high degree of sequence conservation in residues that create the hydrophobic pocket that is essential for YAP binding.[51] YAP proteins also display a high degree of conservation in residues that interact with this pocket.[51] We therefore tested whether CPD3.1 was able to inhibit YAP-induced activity of TEAD1, TEAD2, TEAD3, and TEAD4. To quantify the effect of CPD3.1 on the activity of each individual TEAD paralog, while excluding interference from endogenously expressed TEAD1–4 proteins, we expressed each TEAD paralog (TEAD1–4) fused to the yeast GAL4 DNA-binding domain. Cells were transfected with the GAL4–TEAD expression vector together with a secreted nanoluciferase reporter gene vector under control of a promoter containing five GAL4 DNA-binding elements. This system allows us to study the effect of CPD3.1 on the activity of each individual TEAD protein in isolation, without interference from endogenously expressed transcription factors. In addition, the cells were co-transfected with a YAP expression vector to activate the GAL4–TEAD fusion-dependent transcription (see Supplement Figure 9). Basal activities of TEAD1, TEAD2, TEAD3, and TEAD4 were inhibited by CPD3.1 (Figure 7A–D). […]
(§2) Figure 7 Compound 3.1 inhibits TEAD1, TEAD2, TEAD3, and TEAD4 activities. […] Secreted nano-luciferase activity was quantified in the conditioned media. […]

TEAD2 = biological target: T2, TEAD2 (Homo sapiens, UniProt Q15562); assay: GAL4-TEAD2 fusion / 5xGAL4-secNLUC reporter in HeLa cells; assay type: cell-based; conditions: 100 μM, 6 h
T2 construct: #18881 (FLAG-YAP); host or cells: HeLa
From the text: as §1, §2

T1 sequence (Q99594 whole entry, the tested form may be a part): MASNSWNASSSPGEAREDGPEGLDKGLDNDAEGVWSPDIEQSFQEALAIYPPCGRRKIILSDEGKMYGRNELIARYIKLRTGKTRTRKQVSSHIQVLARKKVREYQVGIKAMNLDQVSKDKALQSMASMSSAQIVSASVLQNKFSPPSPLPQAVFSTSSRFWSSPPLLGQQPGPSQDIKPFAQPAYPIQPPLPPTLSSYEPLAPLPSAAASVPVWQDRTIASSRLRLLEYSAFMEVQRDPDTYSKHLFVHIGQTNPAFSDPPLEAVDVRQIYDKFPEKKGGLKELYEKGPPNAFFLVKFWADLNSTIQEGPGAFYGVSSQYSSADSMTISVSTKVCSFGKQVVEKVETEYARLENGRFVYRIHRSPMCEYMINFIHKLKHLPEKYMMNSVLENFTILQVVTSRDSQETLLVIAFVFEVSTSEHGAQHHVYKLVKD
T2 sequence (Q15562 whole entry, the tested form may be a part): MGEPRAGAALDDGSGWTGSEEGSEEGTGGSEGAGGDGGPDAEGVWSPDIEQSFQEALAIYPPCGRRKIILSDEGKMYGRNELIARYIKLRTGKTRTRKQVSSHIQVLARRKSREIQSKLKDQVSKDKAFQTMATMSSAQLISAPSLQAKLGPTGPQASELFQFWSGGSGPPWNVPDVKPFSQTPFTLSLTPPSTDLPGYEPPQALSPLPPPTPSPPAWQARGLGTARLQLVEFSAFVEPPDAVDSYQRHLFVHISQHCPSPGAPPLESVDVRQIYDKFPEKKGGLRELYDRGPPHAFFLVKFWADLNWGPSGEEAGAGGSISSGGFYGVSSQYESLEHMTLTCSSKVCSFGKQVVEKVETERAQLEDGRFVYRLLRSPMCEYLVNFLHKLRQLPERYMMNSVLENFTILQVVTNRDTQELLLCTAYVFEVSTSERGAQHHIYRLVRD

## Cc1ccc2c(c1)c1c3n2CCNC3CCC1 (stereo not shown) [CPD3.1]
TEAD3
  basal activity of GAL4-TEAD3: inhibited
TEAD3; YAP overexpression
  YAP-stimulated activity of GAL4-TEAD3: significantly inhibited
TEAD2
  basal activity of GAL4-TEAD2: inhibited
TEAD2; YAP overexpression
  YAP-stimulated activity of GAL4-TEAD2: significantly inhibited
